# Results published in ChEMBL document CHEMBL1201862, “PubChem BioAssay data set” (2004).
# Activity calls are given as the source filed them.
# Columns and labels:
# [1] = molecular target: DNA dC->dU-editing enzyme APOBEC-3A (Homo sapiens, UniProt P31941); test: Dose Response confirmation of small molecule APOBEC3A DNA Deaminase Inhibitors via a fluorescence-based single-stranded DNA deaminase assay. [Related pubchem assays (depositor defined):AID493011, AID493024]; type: functional
# [2] = molecular target: T1, RNA-binding protein pos-1 (Caenorhabditis elegans, UniProt G5EF15); test: inhibitors of POS-1/mex-3 RNA binding, dose response, biochemical, fluorescence polarization (AID 1964);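 further: purified POS-1 fused to maltose binding protein made in E. coli; potency of compounds blocking POS-1 binding to fluorescent RNA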
# T1 sequence (G5EF15 whole entry): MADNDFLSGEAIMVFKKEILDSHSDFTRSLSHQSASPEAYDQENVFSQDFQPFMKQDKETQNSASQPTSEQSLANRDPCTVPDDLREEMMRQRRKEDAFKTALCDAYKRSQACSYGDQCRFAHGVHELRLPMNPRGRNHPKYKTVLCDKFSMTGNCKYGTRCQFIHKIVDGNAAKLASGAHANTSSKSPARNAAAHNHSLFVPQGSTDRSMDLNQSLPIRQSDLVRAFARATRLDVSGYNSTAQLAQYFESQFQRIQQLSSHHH
# [3] = molecular target: T2, Bifunctional protein GlmU (Mycobacterium tuberculosis, UniProt P9WMN3); test: Inhibitors of Mycobacterial Glucosamine-1-phosphate acetyl transferase (GlmU). Secondary screen.; set-up: species or system Mycobacterium tuberculosis H37Rv
# T2 sequence (P9WMN3 whole entry): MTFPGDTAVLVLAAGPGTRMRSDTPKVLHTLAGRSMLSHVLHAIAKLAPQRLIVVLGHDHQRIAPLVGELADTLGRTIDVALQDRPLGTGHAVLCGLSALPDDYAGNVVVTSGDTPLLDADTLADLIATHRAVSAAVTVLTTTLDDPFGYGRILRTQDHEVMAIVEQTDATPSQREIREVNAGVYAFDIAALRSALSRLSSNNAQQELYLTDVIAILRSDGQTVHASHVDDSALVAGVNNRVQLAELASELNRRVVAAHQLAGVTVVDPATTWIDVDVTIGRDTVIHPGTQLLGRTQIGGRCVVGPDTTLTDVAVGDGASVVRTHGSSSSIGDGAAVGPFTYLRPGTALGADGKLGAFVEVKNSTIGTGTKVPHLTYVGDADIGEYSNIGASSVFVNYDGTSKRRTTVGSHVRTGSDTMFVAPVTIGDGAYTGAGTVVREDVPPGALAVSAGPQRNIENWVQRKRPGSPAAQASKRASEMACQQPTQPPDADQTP
# [4] = molecular target: DNA dC->dU-editing enzyme APOBEC-3G (Homo sapiens, UniProt Q9HC16); type: functional;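 further: Dose-response counterscreen measuring inhibition of APOBEC3G DNA deaminase activity, run while confirming APOBEC3A inhibitors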
# Sequence of DNA dC->dU-editing enzyme APOBEC-3G (Q9HC16 whole entry): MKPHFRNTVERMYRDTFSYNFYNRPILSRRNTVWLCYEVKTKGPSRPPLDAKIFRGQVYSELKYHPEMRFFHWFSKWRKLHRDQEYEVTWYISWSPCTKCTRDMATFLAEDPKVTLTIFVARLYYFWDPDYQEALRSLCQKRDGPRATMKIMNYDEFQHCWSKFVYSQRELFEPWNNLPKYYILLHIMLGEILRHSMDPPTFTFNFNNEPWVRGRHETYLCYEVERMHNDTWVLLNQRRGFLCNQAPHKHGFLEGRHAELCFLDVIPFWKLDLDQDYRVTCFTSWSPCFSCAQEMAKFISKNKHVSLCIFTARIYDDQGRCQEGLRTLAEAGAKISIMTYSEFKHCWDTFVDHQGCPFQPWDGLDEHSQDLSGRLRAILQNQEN
# [5] = molecular target: T3, Zinc finger protein mex-5 (Caenorhabditis elegans, UniProt Q9XUB2); test: MEX-5/TCR-2 RNA interaction inhibitors, dose response, biochemical, C. elegans, fluorescence polarization (AID 1960)
# T3 sequence (Q9XUB2 whole entry): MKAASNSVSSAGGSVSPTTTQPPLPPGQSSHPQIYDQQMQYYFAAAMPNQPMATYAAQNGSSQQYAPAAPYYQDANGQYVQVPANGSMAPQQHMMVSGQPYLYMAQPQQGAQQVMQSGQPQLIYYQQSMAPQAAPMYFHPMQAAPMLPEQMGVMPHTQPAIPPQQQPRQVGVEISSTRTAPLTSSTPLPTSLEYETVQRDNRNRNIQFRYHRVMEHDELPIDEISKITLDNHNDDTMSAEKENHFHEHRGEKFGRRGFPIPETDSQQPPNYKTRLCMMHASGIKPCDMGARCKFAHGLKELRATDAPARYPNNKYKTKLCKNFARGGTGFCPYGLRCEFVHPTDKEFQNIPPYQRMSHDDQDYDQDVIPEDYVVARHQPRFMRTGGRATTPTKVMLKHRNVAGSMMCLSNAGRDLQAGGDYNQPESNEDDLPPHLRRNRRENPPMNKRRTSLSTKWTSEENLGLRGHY
# 14-3-3 protein gamma = molecular target: T4, 14-3-3 protein gamma (Homo sapiens, UniProt P61981); test: modulators of 14-3-3 gamma client binding – dose response (AID 711); type: functional
# T4 sequence (P61981 whole entry): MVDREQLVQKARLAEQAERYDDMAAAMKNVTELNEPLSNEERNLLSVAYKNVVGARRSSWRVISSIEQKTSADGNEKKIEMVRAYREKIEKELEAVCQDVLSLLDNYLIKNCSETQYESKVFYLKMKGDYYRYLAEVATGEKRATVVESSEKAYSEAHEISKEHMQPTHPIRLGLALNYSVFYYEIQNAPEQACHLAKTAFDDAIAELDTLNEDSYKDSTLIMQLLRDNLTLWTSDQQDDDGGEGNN
# [6] = molecular target: T5, High affinity choline transporter 1 (Homo sapiens, UniProt Q9GZV3); test: CHT inhibitors, dose response, cell-based, 5-point CRC, membrane potential dye (AID 504840); type: functional
# T5 sequence (Q9GZV3 whole entry): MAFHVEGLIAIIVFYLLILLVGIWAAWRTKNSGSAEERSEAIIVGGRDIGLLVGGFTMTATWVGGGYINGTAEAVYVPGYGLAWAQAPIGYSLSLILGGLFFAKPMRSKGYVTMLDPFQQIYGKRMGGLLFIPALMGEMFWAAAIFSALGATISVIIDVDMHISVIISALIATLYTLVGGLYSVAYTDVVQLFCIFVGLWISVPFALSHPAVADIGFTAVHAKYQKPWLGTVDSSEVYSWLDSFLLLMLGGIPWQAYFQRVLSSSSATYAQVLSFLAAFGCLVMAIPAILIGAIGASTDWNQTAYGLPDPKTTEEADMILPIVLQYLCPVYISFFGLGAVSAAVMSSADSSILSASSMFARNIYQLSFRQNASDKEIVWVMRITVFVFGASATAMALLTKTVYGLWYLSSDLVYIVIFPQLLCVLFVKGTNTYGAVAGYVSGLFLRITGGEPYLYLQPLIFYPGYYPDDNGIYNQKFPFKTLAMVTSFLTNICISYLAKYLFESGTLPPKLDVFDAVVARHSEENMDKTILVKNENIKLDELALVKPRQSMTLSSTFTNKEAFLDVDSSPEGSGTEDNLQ
# [7] = molecular target: T6, 5-hydroxytryptamine receptor 1A (Homo sapiens, UniProt P08908); type: functional
# T6 sequence (P08908 whole entry): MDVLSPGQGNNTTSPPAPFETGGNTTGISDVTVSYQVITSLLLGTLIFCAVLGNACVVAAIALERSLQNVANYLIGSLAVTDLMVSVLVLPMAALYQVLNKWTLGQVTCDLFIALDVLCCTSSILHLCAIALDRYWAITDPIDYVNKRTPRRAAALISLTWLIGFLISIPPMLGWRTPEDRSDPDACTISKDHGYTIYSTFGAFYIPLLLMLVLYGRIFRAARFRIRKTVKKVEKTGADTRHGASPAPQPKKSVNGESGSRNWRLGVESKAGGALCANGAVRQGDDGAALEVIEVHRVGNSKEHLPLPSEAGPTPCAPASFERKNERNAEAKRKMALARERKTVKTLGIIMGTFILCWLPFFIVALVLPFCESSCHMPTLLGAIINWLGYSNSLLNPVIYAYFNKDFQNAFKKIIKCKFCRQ
# [8] = HEp-2 cell cytotoxicity, dose response, cytotoxicity control for RSV inhibitor project, HTS (AID 2410); type: functional; details: human respiratory syncytial virus
# [9] = molecular target: Voltage-gated inwardly rectifying potassium channel KCNH2 (Homo sapiens, UniProt Q12809); test: hERG protection from proarrhythmic block, potency, dose response, cell-based, thallium flux (AID 2121); type: ADME
# Sequence of Voltage-gated inwardly rectifying potassium channel KCNH2 (Q12809 whole entry): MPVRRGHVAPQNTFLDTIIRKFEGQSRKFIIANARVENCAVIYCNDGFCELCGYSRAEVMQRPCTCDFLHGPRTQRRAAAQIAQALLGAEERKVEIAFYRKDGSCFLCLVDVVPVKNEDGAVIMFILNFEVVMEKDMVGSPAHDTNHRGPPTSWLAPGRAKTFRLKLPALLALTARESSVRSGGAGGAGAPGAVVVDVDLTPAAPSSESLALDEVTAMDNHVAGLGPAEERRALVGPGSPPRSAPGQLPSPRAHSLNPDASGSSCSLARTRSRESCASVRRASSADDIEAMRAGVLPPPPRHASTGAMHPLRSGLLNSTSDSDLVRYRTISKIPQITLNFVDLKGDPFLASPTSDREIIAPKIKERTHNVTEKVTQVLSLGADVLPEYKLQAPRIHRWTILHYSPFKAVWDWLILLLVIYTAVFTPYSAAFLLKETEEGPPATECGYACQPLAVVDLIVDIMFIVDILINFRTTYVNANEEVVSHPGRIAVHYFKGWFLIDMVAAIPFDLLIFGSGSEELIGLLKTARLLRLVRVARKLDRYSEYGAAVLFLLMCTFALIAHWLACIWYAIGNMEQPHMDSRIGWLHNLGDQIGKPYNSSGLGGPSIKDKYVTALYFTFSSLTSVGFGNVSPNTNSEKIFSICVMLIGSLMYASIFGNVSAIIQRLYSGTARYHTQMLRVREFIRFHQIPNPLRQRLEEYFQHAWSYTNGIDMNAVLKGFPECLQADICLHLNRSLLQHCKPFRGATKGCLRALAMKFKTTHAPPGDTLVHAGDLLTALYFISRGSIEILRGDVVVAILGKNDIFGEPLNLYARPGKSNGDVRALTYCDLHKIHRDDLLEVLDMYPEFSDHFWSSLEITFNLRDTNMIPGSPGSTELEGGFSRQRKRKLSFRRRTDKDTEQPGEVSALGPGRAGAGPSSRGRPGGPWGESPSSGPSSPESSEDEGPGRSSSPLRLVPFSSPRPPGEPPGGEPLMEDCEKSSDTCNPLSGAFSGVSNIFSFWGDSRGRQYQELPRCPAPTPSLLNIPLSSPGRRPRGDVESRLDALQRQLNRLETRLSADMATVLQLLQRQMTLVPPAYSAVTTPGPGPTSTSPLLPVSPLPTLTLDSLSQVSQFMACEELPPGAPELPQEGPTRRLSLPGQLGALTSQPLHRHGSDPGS
# Ephrin type-A receptor 4 = Ephrin type-A receptor 4 (Mus musculus, UniProt Q03137); test: inhibitors of EphA4 binding to KYL peptide, primary screen, biochemical, colorimetric, mouse EphA4 (AID 689); type: functional
# Sequence of Ephrin type-A receptor 4 (Q03137 whole entry): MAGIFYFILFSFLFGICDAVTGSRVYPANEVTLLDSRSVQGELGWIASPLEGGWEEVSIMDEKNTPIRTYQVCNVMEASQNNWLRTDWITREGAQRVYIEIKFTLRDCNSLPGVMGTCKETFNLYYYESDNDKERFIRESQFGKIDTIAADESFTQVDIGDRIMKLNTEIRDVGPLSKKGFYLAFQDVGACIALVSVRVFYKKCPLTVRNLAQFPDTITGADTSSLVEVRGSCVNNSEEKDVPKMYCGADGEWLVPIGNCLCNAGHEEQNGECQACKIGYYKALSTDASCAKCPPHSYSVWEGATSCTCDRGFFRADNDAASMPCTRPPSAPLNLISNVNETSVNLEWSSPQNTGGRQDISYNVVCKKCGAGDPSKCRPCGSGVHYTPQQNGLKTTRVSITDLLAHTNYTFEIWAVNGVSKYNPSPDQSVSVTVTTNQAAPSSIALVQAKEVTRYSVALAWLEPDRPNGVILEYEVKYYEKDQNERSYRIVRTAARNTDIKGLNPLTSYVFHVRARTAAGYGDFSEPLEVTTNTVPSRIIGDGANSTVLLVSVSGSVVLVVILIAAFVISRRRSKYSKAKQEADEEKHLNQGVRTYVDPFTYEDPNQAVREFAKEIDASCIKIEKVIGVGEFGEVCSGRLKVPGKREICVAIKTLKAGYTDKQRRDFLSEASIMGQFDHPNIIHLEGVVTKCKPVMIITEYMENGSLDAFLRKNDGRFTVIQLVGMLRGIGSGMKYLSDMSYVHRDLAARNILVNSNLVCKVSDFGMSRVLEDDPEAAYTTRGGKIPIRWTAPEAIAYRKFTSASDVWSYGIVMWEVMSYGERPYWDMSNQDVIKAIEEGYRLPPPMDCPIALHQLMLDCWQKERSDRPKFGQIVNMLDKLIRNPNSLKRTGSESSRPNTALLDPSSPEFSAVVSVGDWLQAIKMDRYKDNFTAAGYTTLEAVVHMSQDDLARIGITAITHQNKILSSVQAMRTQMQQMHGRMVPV
# [10] = molecular target: DNA (cytosine-5)-methyltransferase 1 (Homo sapiens, UniProt P26358); test: DNMT1 methyltransferase inhibitors, confirmation, biochemical, fluorescent molecular beacon (AID 602386); type: functional
# [11] = molecular target: 26S proteasome non-ATPase regulatory subunit 14 (Homo sapiens, UniProt O00487); test: inhibition of proteasome subunit RPN11 – biochemical, fluorescence polarization, uHTS hits, confirmation (AID 602368); type: functional
# Sequence of 26S proteasome non-ATPase regulatory subunit 14 (O00487 whole entry): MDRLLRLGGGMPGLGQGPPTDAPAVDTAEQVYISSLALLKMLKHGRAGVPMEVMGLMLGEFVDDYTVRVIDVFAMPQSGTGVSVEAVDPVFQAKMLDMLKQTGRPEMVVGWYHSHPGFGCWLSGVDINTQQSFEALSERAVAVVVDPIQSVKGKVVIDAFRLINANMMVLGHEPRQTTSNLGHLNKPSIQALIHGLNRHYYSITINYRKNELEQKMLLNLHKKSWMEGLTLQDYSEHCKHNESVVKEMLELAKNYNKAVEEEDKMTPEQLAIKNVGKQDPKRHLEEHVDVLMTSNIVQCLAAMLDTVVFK
# [12] = molecular target: 72 kDa type IV collagenase (Homo sapiens, UniProt P08253); test: Dose Response validation of uHTS RPN11 inhibitor hits using a MMP-2 Fluorescence assay.; type: functional
# Sequence of 72 kDa type IV collagenase (P08253 whole entry): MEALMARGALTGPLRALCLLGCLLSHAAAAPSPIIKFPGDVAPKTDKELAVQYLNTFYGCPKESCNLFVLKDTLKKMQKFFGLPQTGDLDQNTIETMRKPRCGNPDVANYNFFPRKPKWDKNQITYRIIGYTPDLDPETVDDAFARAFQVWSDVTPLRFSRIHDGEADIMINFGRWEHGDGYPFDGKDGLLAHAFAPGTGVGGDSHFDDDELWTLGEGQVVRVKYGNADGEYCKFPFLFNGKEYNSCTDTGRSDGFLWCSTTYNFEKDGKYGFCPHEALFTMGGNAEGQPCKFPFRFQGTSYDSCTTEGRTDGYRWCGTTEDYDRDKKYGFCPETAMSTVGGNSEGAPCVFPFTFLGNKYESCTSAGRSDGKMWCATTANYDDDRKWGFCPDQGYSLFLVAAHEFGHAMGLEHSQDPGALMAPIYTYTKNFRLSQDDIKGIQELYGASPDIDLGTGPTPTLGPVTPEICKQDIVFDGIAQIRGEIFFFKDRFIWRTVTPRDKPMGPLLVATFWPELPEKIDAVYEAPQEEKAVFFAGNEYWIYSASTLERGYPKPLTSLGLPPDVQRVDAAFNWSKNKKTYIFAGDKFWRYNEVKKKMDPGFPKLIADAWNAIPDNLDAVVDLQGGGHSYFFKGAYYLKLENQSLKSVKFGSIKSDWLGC
# ORF 73 = molecular target: T7, ORF 73 (Human herpesvirus 8, UniProt O40947); test: inhibitors of C-LANA binding to LBS DNA, dose response, biochemical, fluorescence polarization, cherry-picked samples (AID 504725); set-up: species or system Human gammaherpesvirus 8;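 further: fluorescence polarization of a labeled DNA duplex reporting LANA DNA binding; potency is for inhibitors that block LANA binding to the DNA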
# T7 sequence (O40947 whole entry): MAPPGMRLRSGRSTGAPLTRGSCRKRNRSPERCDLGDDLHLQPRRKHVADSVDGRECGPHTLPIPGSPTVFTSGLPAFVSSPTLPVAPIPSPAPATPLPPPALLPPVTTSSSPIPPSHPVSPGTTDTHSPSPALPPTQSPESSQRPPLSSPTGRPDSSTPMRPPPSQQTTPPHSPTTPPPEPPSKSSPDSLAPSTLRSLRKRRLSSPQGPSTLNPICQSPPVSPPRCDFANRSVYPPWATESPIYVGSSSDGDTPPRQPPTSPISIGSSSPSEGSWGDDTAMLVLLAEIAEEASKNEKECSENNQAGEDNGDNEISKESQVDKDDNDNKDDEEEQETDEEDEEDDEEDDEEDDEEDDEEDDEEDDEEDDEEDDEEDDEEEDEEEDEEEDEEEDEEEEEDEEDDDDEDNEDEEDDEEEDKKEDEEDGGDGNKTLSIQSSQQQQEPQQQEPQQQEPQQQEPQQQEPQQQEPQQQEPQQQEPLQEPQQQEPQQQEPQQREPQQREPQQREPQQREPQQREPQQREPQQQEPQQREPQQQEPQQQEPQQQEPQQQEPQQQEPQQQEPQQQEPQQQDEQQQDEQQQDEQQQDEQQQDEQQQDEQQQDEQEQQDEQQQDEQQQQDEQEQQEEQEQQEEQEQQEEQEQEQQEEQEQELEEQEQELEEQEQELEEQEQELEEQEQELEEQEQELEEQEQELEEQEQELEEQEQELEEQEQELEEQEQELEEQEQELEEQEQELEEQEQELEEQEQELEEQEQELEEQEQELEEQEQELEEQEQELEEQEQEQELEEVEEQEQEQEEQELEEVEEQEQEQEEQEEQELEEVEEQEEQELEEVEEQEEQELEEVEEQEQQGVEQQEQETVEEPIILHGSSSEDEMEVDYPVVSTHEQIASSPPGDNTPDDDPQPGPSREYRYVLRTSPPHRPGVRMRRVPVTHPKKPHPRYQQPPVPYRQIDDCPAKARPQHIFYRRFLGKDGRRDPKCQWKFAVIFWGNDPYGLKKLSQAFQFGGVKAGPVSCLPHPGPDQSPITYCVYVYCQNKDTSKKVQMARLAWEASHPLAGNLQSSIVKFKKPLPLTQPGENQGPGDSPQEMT
# Prothrombin = Prothrombin (Bos taurus, UniProt P00735); test: thrombin inhibition, dose response, biochemical, fluorescence polarization, uHTS hits (AID 602369); type: functional
# [13] = molecular target: G-protein coupled receptor 183 (Homo sapiens, UniProt P32249); test: SAR confirmation of small molecule antagonists of the EBI2 receptor via a luminescent beta-arrestin assa.; type: functional
# Sequence of G-protein coupled receptor 183 (P32249 whole entry): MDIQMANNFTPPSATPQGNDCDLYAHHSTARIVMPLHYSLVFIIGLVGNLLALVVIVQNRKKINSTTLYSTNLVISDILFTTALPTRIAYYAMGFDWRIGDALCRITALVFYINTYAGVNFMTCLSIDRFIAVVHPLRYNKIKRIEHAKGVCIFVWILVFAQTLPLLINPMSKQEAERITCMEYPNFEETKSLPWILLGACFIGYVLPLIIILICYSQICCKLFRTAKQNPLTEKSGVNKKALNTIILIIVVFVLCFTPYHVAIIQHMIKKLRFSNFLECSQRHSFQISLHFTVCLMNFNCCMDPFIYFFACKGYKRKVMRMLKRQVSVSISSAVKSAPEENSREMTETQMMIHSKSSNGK
# Sequence of DNA dC->dU-editing enzyme APOBEC-3A (P31941 whole entry, the tested form may be a part): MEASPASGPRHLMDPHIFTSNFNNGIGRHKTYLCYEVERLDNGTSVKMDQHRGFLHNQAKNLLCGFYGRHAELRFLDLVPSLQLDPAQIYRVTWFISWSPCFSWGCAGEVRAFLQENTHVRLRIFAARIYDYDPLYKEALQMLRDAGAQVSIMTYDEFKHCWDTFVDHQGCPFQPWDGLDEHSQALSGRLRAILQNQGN
compound,measurement,setting,value
CSc1nnc(SCc2nc3sc(C(=O)O)c(C)c3c(=O)[nH]2)s1,IC50,[1],14 µM (active)
same,EC50,[2],25.4 µM (active)
same,IC50,[3],76.2 µM (active)
same,IC50,[4],24.6 µM (active)
same,EC50,[5],30.6 µM (active)
COc1ccc(-n2ncc3c(N4CCCc5ccccc54)ncnc32)cc1,IC50,14-3-3 protein gamma,> 50 µM (not active)
CCOc1ccc(N2C(=O)NC(=O)/C(=C\NCCN3CCNCC3)C2=O)cc1,IC50,14-3-3 protein gamma,> 50 µM (not active)
Cc1cccc(N2CCN(C(=O)Cc3c(C(=O)O)[nH]c4ccc(Cl)cc34)CC2)c1C,IC50,[6],10.8 µM (active)
same,EC50,[7],> 50 µM (not active)
same,CC50,[8],20.4 µM (active)
O=C1C2CC=CCC2C(=O)N1c1ccc(Cc2ccncc2)cc1 (centres undefined),EC50,[9],0.86 µM (active)
Cc1nn(-c2ccccc2)c2c1C(c1cccnc1)N1C=C(S(=O)(=O)N3CCCCC3)C=CC1=N2 (centres undefined),IC50,Ephrin type-A receptor 4,> 100 µM (not active)
O=C(Nc1cccc(-c2cn3ccsc3n2)c1)c1ccccc1,EC50,[7],> 50 µM (not active)
CCOC(=O)c1sc(NN=C(C(=O)OC)C(=O)OC)c(C(=O)OCC)c1C,EC50,[9],0.21 µM (active)
COC(=O)c1ccccc1NC(=O)CCS(=O)(=O)c1ccc(Br)cc1,IC50,[10],3.69 µM (active)
same,IC50,[11],14 µM (active)
same,IC50,[12],22.5 µM (active)
same,IC50,[3],28.6 µM (active)
same,AC50,ORF 73,31.5 µM (active)
same,IC50,Prothrombin,> 100 µM (inactive)
C/C(=C\C(=O)c1ccccc1)NNc1nc2ccccc2s1,IC50,Ephrin type-A receptor 4,> 100 µM (not active)
CC(C)(C)c1ccc(S(=O)(=O)N2CCN(C(=O)/C=C/c3ccc(F)cc3)CC2)cc1,IC50,[13],0.0124 µM (active)
O=C(/C=C/c1ccc(Br)cc1)N1CCN(C(=O)c2ccc(Cl)cc2)CC1,IC50,[13],0.000409 µM (active)
O=C(/C=C/c1ccc(F)cc1)N1CCN(S(=O)(=O)c2cc(Cl)ccc2Cl)CC1,IC50,[13],0.0219 µM (active)
